For 32 molecules, IC50 results are on record in patent publication US12084434B2 (Scorpion Therapeutics, Inc., priority 2021, dated 2024).

The structures appear in SMILES notation.

One may read the IC50 as the concentration needed to halve the response being measured.

One experiment has as its system T47D pAKT (S473), PI3Kα H1047R mutation present. Nature of the experiment: HTRF pAKT-T47D.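 Also: assay medium was RPMI with 10% FBS and 0.2 units/ml bovine insulin, without phenol red.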 As to conditions: Homo sapiens, T47D, 1 h, read-out: T47D pAKT IC50 (nM), T47D.1 cells, pAKT (S473) HTRF, 1 hour. (In general: Time-resolved FRET reads energy transfer from a long-lived donor to a nearby acceptor.)
Description: Homogenous Time-Resolved Fluorescence (HTRF)—pAKT-T47D
Compounds were assayed using homogeneous time-resolved fluorescence (HTRF).
Gibco RPMI 1640 Medium, no phenol red; Gibco RPMI 1640 Medium; Gibco Trypsin-EDTA (0.5%), no phenol red; Gibco DPBS; Trypan blue solution 0.4% (Corning); Avantor Seradigm Premium Grade Fetal Bovine Serum (FBS); Greiner 784080-384 well TC treated white plates; pAKT (Ser473) HTRF; Gibco Insulin, human recombinant, zinc solution; Gibco Recovery Cell Culture Freezing Medium; Countess II FL Automated Cell Counter (ThermoFisher); Countess II Slides (ThermoFisher); Microscope; and PHERAstar FSX Microplate Reader (BMG LABTECH, Inc.).
The scinamic cell line ID was T47D.1, the HTRF detection was pAKT (S473), a PI3Kα H1047R mutation was present, the seeding density was 5000, the timepoint was 1 hour, and the medium used was RPMI+10% FBS (no phenol red)+0.2 units/ml bovine insulin.
• The cell density was not permitted to reach 100% confluence. The cells were split 1:5 when they reached ˜80% confluence. • Cells were split twice a week (Mon and Fri). • Cells over passage 18 were not used (˜2 months of maintenance). • Antibiotics were not used for tissue culture maintenance or assays. […] Protocol Day1
The procedure was as follows: • 1. Prepared ARP: • a. Stamped 12.5 nL from 10 μmM source plate to destination plate using Echo. Sealed plate immediately and froze at −20° C. if it was not used on the same day. • b. If a frozen ARP was used, the plate was thawed and spun at 1000 rpm×1 min. • 2. Preparation of cells (adherent): • a. Aspirated media from cells. Washed cells with sterile 1XPBS. Aspirated PBS and added appropriate amount of Trypsin. • b. Once cells were fully trypsinized, added appropriate media to resuspend cells. Transferred cells to a 15 mL or 50 mL conical tube. • c. Counted cells on the Countess II Cell Counter. • 3. Plating of cells: • a. Prepared cells at appropriate plating density. Dispensed 12 μL of diluted cells per well of a Greiner 784080-384 well TC treated white plate using a Multidrop Combi to columns 1-23. Added 12 uL of appropriate phenol free media only to column 24. • b. Placed plates in 37° C. tissue culture incubator for appropriate treatment time (refer to “Assay” table). • 4. Prepared HTRF Lysis Buffer • a. Calculate the amount of HTRF lysis buffer master mix needed to perform the desired experiments plus any extra dead volume required for dispensing (4 μL required per well). […] Add 4 uL Lysis buffer master mix to all wells with sample or DMSO. Centrifuge the plates for 1 minute at 1000 rpm. • c. Incubate at room temperature for 30 minutes. • 5. Prepared HTRF Antibody • a.
Take `Cc1c(C(NC(=O)Nc2cnc(N3CC(S(C)(=O)=O)C3)nc2)C(F)(F)F)oc2c(F)cc(F)cc12` (racemic) [Compound 185, 1-(1-(5,7-difluoro-3-methylbenzofuran-2-yl)-2,2,2-trifluoroethyl)-3-(2-(3-(methylsulfonyl)azetidin-1-yl)pyrimidin-5-yl)urea]: the half-maximal inhibitory concentration (IC50) lay in the range of 1000 to 5000 nM. For the molecule `Cc1c([C@@H](NC(=O)Nc2cnc(N3C[C@@H](O)[C@@H]3C)nc2)C(C)C)oc2ccc(F)cc12` (relative stereo) [Compound 148, 3-[(1S)-1-(5-fluoro-3-methyl-1-benzofuran-2-yl)-2-methylpropyl]-1-{2-[(2R*,3R**)-3-hydroxy-2-methylazetidin-1-yl]pyrimidin-5-yl}urea], the IC50 was less than 1000 nM. Turning to `Cc1c([C@@H](NC(=O)Nc2cnc(N3C[C@H](O)[C@H]3C)nc2)C(C)C)oc2ccc(F)cc12` (relative stereo) [Compound 149, 3-[(1S)-1-(5-fluoro-3-methyl-1-benzofuran-2-yl)-2-methylpropyl]-1-{2-[(2R*,3R**)-3-hydroxy-2-methylazetidin-1-yl]pyrimidin-5-yl}urea], the half-inhibitory concentration (IC50) is less than 1000 nM. On the same count and under the same terms, as for `Cc1c([C@@H](NC(=O)Nc2cnc(N3CC(O)C3)nc2)C(F)(F)F)oc2c(F)cc(F)cc12` (single isomer, unassigned) [Compound 91], the figure is less than 1000 nM. The same measure, in the same setting: for `Cc1c([C@H](NC(=O)Nc2cnc(N3CC(C)(O)C3)nc2)C(F)(F)F)oc2c(F)cc(F)cc12` (single isomer, unassigned) [Compound 93] the value was less than 1000 nM; for `CC[C@H](NC(=O)Nc1cnc(N)nc1)c1oc2ccc(F)cc2c1C` (single isomer, unassigned) [Compound 100], less than 1000 nM; for `Cc1c(C(NC(=O)Nc2cnc(N3CCC(O)CC3)nc2)C(F)(F)F)oc2c(F)cc(F)cc12` (single isomer, unassigned) [Compound 191], 1000 to 5000 nM.

The same experiment, now with this note: read-out: T47D pAKT IC50; T47D.1 cells, pAKT (S473) HTRF, 1 hour.
Consider `CCc1c(C(NC(=O)Nc2cnc(N)nc2)C(F)(F)F)oc2ccc(F)cc12` (racemic) [Compound 132, 1-(2-aminopyrimidin-5-yl)-3-[1-(3-ethyl-5-fluoro-1-benzofuran-2-yl)-2,2,2-trifluoroethyl]urea], for which the IC50 was less than 1000 nM.

Take `CCc1c(C(NC(=O)Nc2cnc(N)nc2)C(F)(F)F)oc2ccc(F)cc12` (racemic) [Compound 133, 1-(2-aminopyrimidin-5-yl)-3-[1-(3-ethyl-5-fluoro-1-benzofuran-2-yl)-2,2,2-trifluoroethyl]urea]: the IC50 was more than 5000 nM.

For `Cc1c(C(NC(=O)Nc2cnc(N3CC(O)C3)nc2)C(F)(F)F)oc2ccc(Cl)cc12` (racemic) [Compound 153, 3-[1-(5-chloro-3-methyl-1-benzofuran-2-yl)-2,2,2-trifluoroethyl]-1-[2-(3-hydroxyazetidin-1-yl)pyrimidin-5-yl]urea], the IC50 is more than 5000 nM. The same measure, in the same setting: for `Cc1c(C(NC(=O)Nc2cnc(N3CC(O)C3)nc2)C(F)(F)F)oc2ccc(Cl)cc12` (racemic) [Compound 154, 3-[1-(5-chloro-3-methyl-1-benzofuran-2-yl)-2,2,2-trifluoroethyl]-1-[2-(3-hydroxyazetidin-1-yl)pyrimidin-5-yl]urea] the value was less than 1000 nM; for `Cc1c(C(NC(=O)Nc2cnc(N)nc2)C(F)(F)F)oc2c(F)cc(Cl)cc12` (racemic) [Compound 155, 1-(2-aminopyrimidin-5-yl)-3-[1-(5-chloro-7-fluoro-3-methyl-1-benzofuran-2-yl)-2,2,2-trifluoroethyl]urea], more than 5000 nM.

`Cc1c(C(NC(=O)Nc2cnc(N)nc2)C(F)(F)F)oc2c(F)cc(Cl)cc12` (racemic) [Compound 156, 1-(2-aminopyrimidin-5-yl)-3-[1-(5-chloro-7-fluoro-3-methyl-1-benzofuran-2-yl)-2,2,2-trifluoroethyl]urea]: the half-maximal inhibitory concentration (IC50) is less than 1000 nM. On the same count and under the same terms, as for `Cc1c(C(NC(=O)Nc2cnc(N3CC(O)C3)nc2)C(F)(F)F)oc2c(F)cc(Cl)cc12` (racemic) [Compound 157, 3-[1-(5-chloro-7-fluoro-3-methyl-1-benzofuran-2-yl)-2,2,2-trifluoroethyl]-1-[2-(3-hydroxyazetidin-1-yl)pyrimidin-5-yl]urea], the figure is less than 1000 nM; as for `Cc1c(C(NC(=O)Nc2cnc(N3CC(O)C3)nc2)C(F)(F)F)oc2c(F)cc(Cl)cc12` (racemic) [Compound 158, 3-[1-(5-chloro-7-fluoro-3-methyl-1-benzofuran-2-yl)-2,2,2-trifluoroethyl]-1-[2-(3-hydroxyazetidin-1-yl)pyrimidin-5-yl]urea], more than 5000 nM; as for `Cc1c(C(NC(=O)Nc2cnc(N3CC4(COC4)C3)nc2)C(F)(F)F)oc2c(F)cc(F)cc12` (racemic) [Compound 171, 1-(2-(2-oxa-6-azaspiro[3.3]heptan-6-yl)pyrimidin-5-yl)-3-(1-(5,7-difluoro-3-methylbenzofuran-2-yl)-2,2,2-trifluoroethyl)urea], more than 5000 nM. Take `Cc1c(C(NC(=O)Nc2cnc(N3CC4(COC4)C3)nc2)C(F)(F)F)oc2c(F)cc(F)cc12` (racemic) [Compound 172, 1-(2-(2-oxa-6-azaspiro[3.3]heptan-6-yl)pyrimidin-5-yl)-3-(1-(5,7-difluoro-3-methylbenzofuran-2-yl)-2,2,2-trifluoroethyl)urea]: the half-maximal inhibitory concentration (IC50) is less than 1000 nM. On to `Cc1c(C(NC(=O)Nc2cnc(N)nc2)C(F)(F)F)oc2c(Cl)cc(F)cc12` (racemic) [Compound 177, 1-(2-aminopyrimidin-5-yl)-3-[1-(7-chloro-5-fluoro-3-methyl-1-benzofuran-2-yl)-2,2,2-trifluoroethyl] urea], for which the 50% inhibitory concentration (IC50) is more than 5000 nM. The same measure, in the same setting: for `Cc1c(C(NC(=O)Nc2cnc(N)nc2)C(F)(F)F)oc2c(Cl)cc(F)cc12` (racemic) [Compound 178, 1-(2-aminopyrimidin-5-yl)-3-[1-(7-chloro-5-fluoro-3-methyl-1-benzofuran-2-yl)-2,2,2-trifluoroethyl] urea] the value was less than 1000 nM; for `Cc1c(C(NC(=O)Nc2ccc(N3CC(O)C3)nc2)C(F)(F)F)oc2c(F)cc(F)cc12` (racemic) [Compound 179, 3-[1-(5,7-difluoro-3-methyl-1-benzofuran-2-yl)-2,2,2-trifluoroethyl]-1-[6-(3-hydroxyazetidin-1-yl)pyridin-3-yl]urea], more than 5000 nM; for `Cc1c(C(NC(=O)Nc2ccc(N3CC(O)C3)nc2)C(F)(F)F)oc2c(F)cc(F)cc12` (racemic) [Compound 180, 3-[1-(5,7-difluoro-3-methyl-1-benzofuran-2-yl)-2,2,2-trifluoroethyl]-1-[6-(3-hydroxyazetidin-1-yl)pyridin-3-yl]urea], less than 1000 nM. Same read-out and setting: as for `Cc1c(C(NC(=O)Nc2cnc(N3CC(S(C)(=O)=O)C3)nc2)C(F)(F)F)oc2c(F)cc(F)cc12` (racemic) [Compound 186, 1-(1-(5,7-difluoro-3-methylbenzofuran-2-yl)-2,2,2-trifluoroethyl)-3-(2-(3-(methylsulfonyl)azetidin-1-yl)pyrimidin-5-yl)urea], the figure is less than 1000 nM; as for `Cc1c(C(NC(=O)Nc2cnc(N[C@H](C)CO)nc2)C(F)(F)F)oc2c(F)cc(F)cc12` (single isomer, unassigned) [Compound 187], more than 5000 nM; as for `Cc1c(C(NC(=O)Nc2cnc(N[C@H](C)CO)nc2)C(F)(F)F)oc2c(F)cc(F)cc12` (single isomer, unassigned) [Compound 188], less than 1000 nM. In the case of `Cc1c(C(NC(=O)Nc2cnc(N3CCNC(=O)C3)nc2)C(F)(F)F)oc2c(F)cc(F)cc12` (single isomer, unassigned) [Compound 189, 1-(1-(5,7-difluoro-3-methylbenzofuran-2-yl)-2,2,2-trifluoroethyl)-3-(2-(3-oxopiperazin-1-yl)pyrimidin-5-yl)urea], the IC50 was less than 1000 nM. On to `Cc1c(C(NC(=O)Nc2cnc(N3CCNC(=O)C3)nc2)C(F)(F)F)oc2c(F)cc(F)cc12` (single isomer, unassigned) [Compound 190, 1-(1-(5,7-difluoro-3-methylbenzofuran-2-yl)-2,2,2-trifluoroethyl)-3-(2-(3-oxopiperazin-1-yl)pyrimidin-5-yl)urea], for which the IC50 is more than 5000 nM. `Cc1c(C(NC(=O)Nc2cnc(N3CCC(O)CC3)nc2)C(F)(F)F)oc2c(F)cc(F)cc12` (single isomer, unassigned) [Compound 192]: the half-maximal inhibitory concentration (IC50) is less than 1000 nM. The same measure, in the same setting: as for `Cc1c(C(NC(=O)Nc2cnc(N[C@@H](C)CO)nc2)C(F)(F)F)oc2c(F)cc(F)cc12` (single isomer, unassigned) [Compound 195], the figure is more than 5000 nM; as for `Cc1c(C(NC(=O)Nc2cnc(N[C@@H](C)CO)nc2)C(F)(F)F)oc2c(F)cc(F)cc12` (single isomer, unassigned) [Compound 196], less than 1000 nM; as for `Cc1c(C(NC(=O)Nc2cnc(N3CC(C(=O)O)C3)nc2)C(F)(F)F)oc2c(F)cc(F)cc12` (single isomer, unassigned) [Compound 197, 1-[5-({[1-(5,7-difluoro-3-methyl-1-benzofuran-2-yl)-2,2,2-trifluoroethyl]carbamoyl}amino)pyrimidin-2-yl]azetidine-3-carboxylic acid], less than 1000 nM. The same measure, in the same setting: for `Cc1c(C(NC(=O)Nc2cnc(N3CC(C(=O)O)C3)nc2)C(F)(F)F)oc2c(F)cc(F)cc12` (single isomer, unassigned) [Compound 198, 1-[5-({[1-(5,7-difluoro-3-methyl-1-benzofuran-2-yl)-2,2,2-trifluoroethyl]carbamoyl}amino)pyrimidin-2-yl]azetidine-3-carboxylic acid] the value was more than 5000 nM. In the case of `Cc1c(C(NC(=O)Nc2cnc(N3CC(O)C3)nc2)C(F)(F)F)oc2c(Cl)cc(F)cc12` (single isomer, unassigned) [Compound 199, 3-[1-(7-chloro-5-fluoro-3-methyl-1-benzofuran-2-yl)-2,2,2-trifluoroethyl]-1-[2-(3-hydroxyazetidin-1-yl)pyrimidin-5-yl] urea], the half-maximal inhibitory concentration (IC50) is more than 5000 nM.
